Results published in article PMC5605198, “MELK is not necessary for the proliferation of basal-like breast cancer cells” (eLife, 2017).
pIC50: −log10 of the molar value. Like-named read-outs stand apart in the source and are kept apart here.

Legend:
IKK epsilon = IKK epsilon (Homo sapiens, UniProt Q14164); assay: ICKP radiometric kinase assay; assay type: biochemical; details: read-out: % AR (% kinase activity remaining)
ERK8 = ERK8 (Homo sapiens, UniProt Q8TD08); assay: ICKP radiometric kinase assay; assay type: biochemical; details: read-out: % AR (% kinase activity remaining)
EPH-B1 = EPH-B1 (Homo sapiens, UniProt P54762); assay: ICKP radiometric kinase assay; assay type: biochemical; details: read-out: % AR (% kinase activity remaining)
BRK = BRK (Homo sapiens, UniProt Q13882); assay: ICKP radiometric kinase assay; assay type: biochemical; details: read-out: % AR (% kinase activity remaining)
MKK6 = MKK6 (Homo sapiens, UniProt P52564); assay: ICKP radiometric kinase assay; assay type: biochemical; details: read-out: % AR (% kinase activity remaining)
ULK2 = ULK2 (Homo sapiens, UniProt Q8IYT8); assay: ICKP radiometric kinase assay; assay type: biochemical; details: read-out: % AR (% kinase activity remaining)
JAK2 = JAK2 (Homo sapiens, UniProt O60674); assay: ICKP radiometric kinase assay; assay type: biochemical; details: read-out: % AR (% kinase activity remaining)
S6K1 = S6K1 (Homo sapiens, UniProt P23443); assay: ICKP radiometric kinase assay; assay type: biochemical; details: read-out: % AR (% kinase activity remaining)
EIF2AK3 = EIF2AK3 (Homo sapiens, UniProt Q9NZJ5); assay: ICKP radiometric kinase assay; assay type: biochemical; details: read-out: % AR (% kinase activity remaining)
TrkA = TrkA (Homo sapiens, UniProt P04629); assay: ICKP radiometric kinase assay; assay type: biochemical; details: read-out: % AR (% kinase activity remaining)
MKK2 = MKK2 (Homo sapiens, UniProt P36507); assay: ICKP radiometric kinase assay; assay type: biochemical; details: read-out: % AR (% kinase activity remaining)
CAMK1 = CAMK1 (Homo sapiens, UniProt Q14012); assay: ICKP radiometric kinase assay; assay type: biochemical; details: read-out: % AR (% kinase activity remaining)
WNK1 = WNK1 (Homo sapiens, UniProt Q9H4A3); assay: ICKP radiometric kinase assay; assay type: biochemical; details: read-out: % AR (% kinase activity remaining)
MDA-MB-468 = assay: Cell proliferation assay (CellTiter-Glo); details: Homo sapiens
CSK = CSK (Homo sapiens, UniProt P41240); assay: ICKP radiometric kinase assay; assay type: biochemical; details: read-out: % AR (% kinase activity remaining)
SYK = SYK (Homo sapiens, UniProt P43405); assay: ICKP radiometric kinase assay; assay type: biochemical; details: read-out: % AR (% kinase activity remaining)
p38 beta = p38 beta (Homo sapiens, UniProt Q15759); assay: ICKP radiometric kinase assay; assay type: biochemical; details: read-out: % AR (% kinase activity remaining)
JNK3 = JNK3 (Homo sapiens, UniProt P53779); assay: ICKP radiometric kinase assay; assay type: biochemical; details: read-out: % AR (% kinase activity remaining)
DYRK2 = DYRK2 (Homo sapiens, UniProt Q92630); assay: ICKP radiometric kinase assay; assay type: biochemical; details: read-out: % AR (% kinase activity remaining)
CDK2-Cyclin A = CDK2-Cyclin A (Homo sapiens, UniProt P24941); assay: ICKP radiometric kinase assay; assay type: biochemical; details: read-out: % AR (% kinase activity remaining)
PRAK = PRAK (Homo sapiens, UniProt Q8IW41); assay: ICKP radiometric kinase assay; assay type: biochemical; details: read-out: % AR (% kinase activity remaining)
TTK = TTK (Homo sapiens, UniProt P33981); assay: ICKP radiometric kinase assay; assay type: biochemical; details: read-out: % AR (% kinase activity remaining)
NEK6 = NEK6 (Homo sapiens, UniProt Q9HC98); assay: ICKP radiometric kinase assay; assay type: biochemical; details: read-out: % AR (% kinase activity remaining)
TTBK1 = TTBK1 (Homo sapiens, UniProt Q5TCY1); assay: ICKP radiometric kinase assay; assay type: biochemical; details: read-out: % AR (% kinase activity remaining)
TLK1 = TLK1 (Homo sapiens, UniProt Q9UKI8); assay: ICKP radiometric kinase assay; assay type: biochemical; details: read-out: % AR (% kinase activity remaining)
CAMKK beta = CAMKK beta (Homo sapiens, UniProt Q96RR4); assay: ICKP radiometric kinase assay; assay type: biochemical; details: read-out: % AR (% kinase activity remaining)
MARK1 = MARK1 (Homo sapiens, UniProt Q9P0L2); assay: ICKP radiometric kinase assay; assay type: biochemical; details: read-out: % AR (% kinase activity remaining)
NUAK1 = NUAK1 (Homo sapiens, UniProt O60285); assay: ICKP radiometric kinase assay; assay type: biochemical; details: read-out: % AR (% kinase activity remaining)
MLK1 = MLK1 (Homo sapiens, UniProt P80192); assay: ICKP radiometric kinase assay; assay type: biochemical; details: read-out: % AR (% kinase activity remaining)
FGF-R1 = FGF-R1 (Homo sapiens, UniProt P11362); assay: ICKP radiometric kinase assay; assay type: biochemical; details: read-out: % AR (% kinase activity remaining)
EPH-B4 = EPH-B4 (Homo sapiens, UniProt P54760); assay: ICKP radiometric kinase assay; assay type: biochemical; details: read-out: % AR (% kinase activity remaining)
ASK1 = ASK1 (Homo sapiens, UniProt Q99683); assay: ICKP radiometric kinase assay; assay type: biochemical; details: read-out: % AR (% kinase activity remaining)
MEKK1 = MEKK1 (Homo sapiens, UniProt Q13233); assay: ICKP radiometric kinase assay; assay type: biochemical; details: read-out: % AR (% kinase activity remaining)
PINK = PINK (Tribolium castaneum, UniProt D6WMX4); assay: ICKP radiometric kinase assay; details: read-out: % AR (% kinase activity remaining)
DYRK3 = molecular target: T1, DYRK3 (Homo sapiens, UniProt O43781); assay: ICKP radiometric kinase assay; assay type: biochemical; details: for remaining activity at 1 µM: read-out: % AR (% kinase activity remaining)
T1 sequence (O43781 1-588): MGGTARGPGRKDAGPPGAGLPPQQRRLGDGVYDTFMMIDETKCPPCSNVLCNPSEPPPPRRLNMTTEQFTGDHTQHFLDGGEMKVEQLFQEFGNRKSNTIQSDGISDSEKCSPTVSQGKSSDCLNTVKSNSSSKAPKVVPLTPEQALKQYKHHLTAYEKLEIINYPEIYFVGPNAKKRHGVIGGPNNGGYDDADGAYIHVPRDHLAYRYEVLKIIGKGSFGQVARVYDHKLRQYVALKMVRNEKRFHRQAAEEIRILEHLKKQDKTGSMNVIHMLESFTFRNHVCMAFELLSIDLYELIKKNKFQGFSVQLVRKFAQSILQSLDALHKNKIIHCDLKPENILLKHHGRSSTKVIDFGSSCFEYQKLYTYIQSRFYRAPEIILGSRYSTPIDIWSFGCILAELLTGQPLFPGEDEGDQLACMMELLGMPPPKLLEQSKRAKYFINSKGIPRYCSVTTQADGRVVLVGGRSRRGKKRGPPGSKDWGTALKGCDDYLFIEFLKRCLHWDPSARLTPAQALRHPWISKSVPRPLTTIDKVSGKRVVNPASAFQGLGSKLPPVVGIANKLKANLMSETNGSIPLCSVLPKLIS

PHK = assay: ICKP radiometric kinase assay; assay type: biochemical; details: 1 μM
[1] = MDA-MB-468, 72 h, read-out: 3-day antiproliferative IC50
[2] = MDA-MB-468, 168 h, read-out: 7-day antiproliferative IC50

Sequence of EIF2AK3 (Q9NZJ5 30-1116): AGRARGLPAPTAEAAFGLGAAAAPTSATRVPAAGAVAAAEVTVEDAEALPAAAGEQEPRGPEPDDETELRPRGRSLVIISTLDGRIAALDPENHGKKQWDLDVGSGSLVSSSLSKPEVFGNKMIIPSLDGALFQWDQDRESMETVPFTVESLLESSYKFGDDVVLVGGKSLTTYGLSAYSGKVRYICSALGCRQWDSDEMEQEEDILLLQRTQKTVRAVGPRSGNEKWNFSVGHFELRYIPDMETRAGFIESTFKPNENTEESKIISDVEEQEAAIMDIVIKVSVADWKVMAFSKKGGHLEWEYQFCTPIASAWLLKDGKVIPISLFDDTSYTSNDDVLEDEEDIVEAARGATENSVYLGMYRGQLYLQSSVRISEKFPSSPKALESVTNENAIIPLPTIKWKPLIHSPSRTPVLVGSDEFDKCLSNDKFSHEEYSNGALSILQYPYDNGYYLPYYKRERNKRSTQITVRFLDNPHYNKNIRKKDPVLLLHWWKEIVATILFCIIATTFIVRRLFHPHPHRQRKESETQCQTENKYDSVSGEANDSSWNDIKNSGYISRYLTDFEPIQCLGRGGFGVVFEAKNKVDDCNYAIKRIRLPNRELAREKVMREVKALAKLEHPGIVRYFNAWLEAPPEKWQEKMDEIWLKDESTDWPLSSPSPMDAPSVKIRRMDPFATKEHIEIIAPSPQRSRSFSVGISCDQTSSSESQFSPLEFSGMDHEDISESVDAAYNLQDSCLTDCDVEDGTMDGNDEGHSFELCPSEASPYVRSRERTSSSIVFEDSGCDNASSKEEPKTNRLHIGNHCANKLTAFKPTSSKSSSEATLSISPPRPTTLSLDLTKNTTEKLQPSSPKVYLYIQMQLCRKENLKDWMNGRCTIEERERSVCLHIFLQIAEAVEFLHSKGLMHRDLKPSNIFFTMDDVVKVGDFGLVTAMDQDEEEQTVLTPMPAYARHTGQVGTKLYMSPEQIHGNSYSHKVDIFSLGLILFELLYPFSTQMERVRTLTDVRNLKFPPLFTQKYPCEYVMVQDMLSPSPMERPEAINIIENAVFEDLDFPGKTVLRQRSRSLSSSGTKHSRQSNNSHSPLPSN
Sequence of TrkA (P04629 33-796): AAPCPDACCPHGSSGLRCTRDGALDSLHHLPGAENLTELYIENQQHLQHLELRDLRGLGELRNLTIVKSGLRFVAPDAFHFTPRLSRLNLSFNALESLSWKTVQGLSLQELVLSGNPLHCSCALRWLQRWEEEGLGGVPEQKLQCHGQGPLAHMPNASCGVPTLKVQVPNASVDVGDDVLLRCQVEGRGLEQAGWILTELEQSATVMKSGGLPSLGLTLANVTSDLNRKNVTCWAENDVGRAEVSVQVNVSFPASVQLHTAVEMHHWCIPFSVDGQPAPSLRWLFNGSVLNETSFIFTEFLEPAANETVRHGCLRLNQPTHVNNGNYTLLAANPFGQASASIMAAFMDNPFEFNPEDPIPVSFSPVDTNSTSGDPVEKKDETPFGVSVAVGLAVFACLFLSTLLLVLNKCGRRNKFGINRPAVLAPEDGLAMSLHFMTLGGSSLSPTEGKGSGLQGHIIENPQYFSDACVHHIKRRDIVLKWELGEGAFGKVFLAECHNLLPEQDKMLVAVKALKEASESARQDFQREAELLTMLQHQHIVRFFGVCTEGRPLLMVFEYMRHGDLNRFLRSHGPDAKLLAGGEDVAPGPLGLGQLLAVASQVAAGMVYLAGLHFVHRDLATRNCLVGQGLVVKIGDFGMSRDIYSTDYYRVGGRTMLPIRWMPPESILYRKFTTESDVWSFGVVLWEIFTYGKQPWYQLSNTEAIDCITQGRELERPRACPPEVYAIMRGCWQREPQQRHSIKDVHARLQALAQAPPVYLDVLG
Sequence of MLK1 (P80192 whole entry): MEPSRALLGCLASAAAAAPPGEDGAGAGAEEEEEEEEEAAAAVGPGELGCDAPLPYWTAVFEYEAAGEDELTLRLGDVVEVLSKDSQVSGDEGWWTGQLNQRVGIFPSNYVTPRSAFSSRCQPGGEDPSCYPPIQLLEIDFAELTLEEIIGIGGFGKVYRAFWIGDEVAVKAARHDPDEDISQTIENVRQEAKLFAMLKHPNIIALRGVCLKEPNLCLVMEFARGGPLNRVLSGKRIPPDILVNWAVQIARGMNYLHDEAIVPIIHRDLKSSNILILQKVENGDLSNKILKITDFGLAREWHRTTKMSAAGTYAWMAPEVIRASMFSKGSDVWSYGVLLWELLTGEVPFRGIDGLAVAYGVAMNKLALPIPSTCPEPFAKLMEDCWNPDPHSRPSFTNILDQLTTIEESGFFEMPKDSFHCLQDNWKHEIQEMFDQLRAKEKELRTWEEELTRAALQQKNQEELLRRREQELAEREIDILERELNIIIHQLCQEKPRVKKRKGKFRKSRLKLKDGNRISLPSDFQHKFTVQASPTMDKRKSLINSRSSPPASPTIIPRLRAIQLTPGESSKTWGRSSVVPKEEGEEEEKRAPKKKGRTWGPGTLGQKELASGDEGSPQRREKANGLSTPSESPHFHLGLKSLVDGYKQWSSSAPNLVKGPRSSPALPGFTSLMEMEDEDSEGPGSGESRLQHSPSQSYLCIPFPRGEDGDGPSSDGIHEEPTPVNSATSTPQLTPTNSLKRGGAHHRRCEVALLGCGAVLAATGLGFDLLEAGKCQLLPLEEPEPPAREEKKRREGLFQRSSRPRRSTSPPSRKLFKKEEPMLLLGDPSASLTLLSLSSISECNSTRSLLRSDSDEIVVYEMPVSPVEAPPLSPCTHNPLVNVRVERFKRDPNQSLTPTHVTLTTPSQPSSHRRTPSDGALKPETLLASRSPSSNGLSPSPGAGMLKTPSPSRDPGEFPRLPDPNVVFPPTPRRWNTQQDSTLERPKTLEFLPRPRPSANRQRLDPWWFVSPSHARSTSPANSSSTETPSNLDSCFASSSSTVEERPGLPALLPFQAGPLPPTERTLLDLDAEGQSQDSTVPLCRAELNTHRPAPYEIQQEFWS
Sequence of BRK (Q13882 whole entry): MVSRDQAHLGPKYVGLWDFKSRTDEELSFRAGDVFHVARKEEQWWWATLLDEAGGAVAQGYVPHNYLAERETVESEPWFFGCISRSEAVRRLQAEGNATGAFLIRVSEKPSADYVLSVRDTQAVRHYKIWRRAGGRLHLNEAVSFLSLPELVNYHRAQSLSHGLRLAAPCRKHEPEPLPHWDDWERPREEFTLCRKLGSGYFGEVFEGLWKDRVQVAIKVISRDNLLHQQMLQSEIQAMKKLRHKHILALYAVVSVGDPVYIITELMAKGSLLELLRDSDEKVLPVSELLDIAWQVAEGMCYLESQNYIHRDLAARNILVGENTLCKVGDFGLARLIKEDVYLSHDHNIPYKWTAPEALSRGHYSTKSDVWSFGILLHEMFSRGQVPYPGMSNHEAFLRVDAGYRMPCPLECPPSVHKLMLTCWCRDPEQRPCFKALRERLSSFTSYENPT
Sequence of PINK (D6WMX4 6-570): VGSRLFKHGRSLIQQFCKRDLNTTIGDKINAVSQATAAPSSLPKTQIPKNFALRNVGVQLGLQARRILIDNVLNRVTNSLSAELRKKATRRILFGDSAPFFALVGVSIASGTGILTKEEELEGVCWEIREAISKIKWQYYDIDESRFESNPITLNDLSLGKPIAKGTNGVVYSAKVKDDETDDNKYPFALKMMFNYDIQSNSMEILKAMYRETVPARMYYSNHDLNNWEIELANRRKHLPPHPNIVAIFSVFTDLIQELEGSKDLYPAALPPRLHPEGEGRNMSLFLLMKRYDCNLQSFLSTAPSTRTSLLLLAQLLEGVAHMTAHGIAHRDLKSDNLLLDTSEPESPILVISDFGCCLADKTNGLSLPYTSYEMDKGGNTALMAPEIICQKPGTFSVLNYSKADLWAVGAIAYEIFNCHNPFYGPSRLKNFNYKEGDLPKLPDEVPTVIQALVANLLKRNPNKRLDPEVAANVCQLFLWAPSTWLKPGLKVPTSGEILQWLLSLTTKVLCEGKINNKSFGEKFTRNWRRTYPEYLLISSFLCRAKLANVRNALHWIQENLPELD
Sequence of p38 beta (Q15759 whole entry): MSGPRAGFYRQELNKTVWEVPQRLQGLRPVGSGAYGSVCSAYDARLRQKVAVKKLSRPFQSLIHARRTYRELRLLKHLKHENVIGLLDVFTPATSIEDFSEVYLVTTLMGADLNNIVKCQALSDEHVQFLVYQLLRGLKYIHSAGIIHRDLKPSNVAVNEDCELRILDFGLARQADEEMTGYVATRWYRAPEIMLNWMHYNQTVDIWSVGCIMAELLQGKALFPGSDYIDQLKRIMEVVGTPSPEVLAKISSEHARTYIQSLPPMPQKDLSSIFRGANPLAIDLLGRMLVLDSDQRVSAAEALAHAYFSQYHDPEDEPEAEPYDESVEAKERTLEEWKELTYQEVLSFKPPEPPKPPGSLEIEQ
Sequence of NUAK1 (O60285 whole entry): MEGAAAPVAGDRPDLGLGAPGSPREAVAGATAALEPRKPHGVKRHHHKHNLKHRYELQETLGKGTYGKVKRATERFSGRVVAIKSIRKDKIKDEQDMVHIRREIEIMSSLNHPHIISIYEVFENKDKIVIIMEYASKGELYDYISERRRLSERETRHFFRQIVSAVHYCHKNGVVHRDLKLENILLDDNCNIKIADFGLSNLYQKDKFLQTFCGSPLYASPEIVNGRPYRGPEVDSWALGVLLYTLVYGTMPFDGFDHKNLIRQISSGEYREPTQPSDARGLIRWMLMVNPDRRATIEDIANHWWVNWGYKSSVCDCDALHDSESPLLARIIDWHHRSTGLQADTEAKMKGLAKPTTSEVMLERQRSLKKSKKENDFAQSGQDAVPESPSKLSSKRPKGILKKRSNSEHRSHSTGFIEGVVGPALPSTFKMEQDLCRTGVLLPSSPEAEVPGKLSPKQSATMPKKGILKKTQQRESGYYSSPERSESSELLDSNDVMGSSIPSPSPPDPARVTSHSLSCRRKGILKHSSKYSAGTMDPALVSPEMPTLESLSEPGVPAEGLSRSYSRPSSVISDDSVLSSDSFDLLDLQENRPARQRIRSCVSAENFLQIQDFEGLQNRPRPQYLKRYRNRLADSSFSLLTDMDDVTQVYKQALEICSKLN

Row | SMILES | remaining activity at 1 µM (IKK epsilon) [%] | remaining activity at 1 µM (ERK8) [%] | remaining activity at 1 µM (EPH-B1) [%] | remaining activity at 1 µM (BRK) [%] | remaining activity at 1 µM (MKK6) [%] | remaining activity at 1 µM (ULK2) [%] | remaining activity at 1 µM (JAK2) [%] | remaining activity at 1 µM (S6K1) [%] | remaining activity at 1 µM (EIF2AK3) [%] | remaining activity at 1 µM (TrkA) [%] | remaining activity at 1 µM (MKK2) [%] | remaining activity at 1 µM (CAMK1) [%] | remaining activity at 1 µM (WNK1) [%] | pIC50 (MDA-MB-468; [1]) | pIC50 (MDA-MB-468; [2]) | remaining activity at 1 µM (CSK) [%] | remaining activity at 1 µM (SYK) [%] | remaining activity at 1 µM (p38 beta) [%] | remaining activity at 1 µM (JNK3) [%] | remaining activity at 1 µM (DYRK2) [%] | also measured
1 | CN(C)C[C@H]1CC[C@H](N2C(=O)NCc3cnc4ccc(-c5cc(Cl)c(O)c(Cl)c5)cc4c32)CC1 [HTH-01-091, 9-(3,5-dichloro-4-hydroxyphenyl)-1-(trans-4-((dimethylamino)methyl)cyclohexyl)-3,4-dihydropyrimido[5,4 c]quinolin-2(1H)-one] | 92 | 24 | 122 | 96 | 99 | 105 | 39 | 81 | 114 | 53 | 75 | 93 | 101 | 5.40 | 5.57 | 76 | 112 | 85 | 101 | 18 | remaining activity at 1 µM (CDK2-Cyclin A): 67%; remaining activity at 1 µM (PRAK): 78%; remaining activity at 1 µM (TTK): 53%; remaining activity at 1 µM (NEK6): 95%; remaining activity at 1 µM (TTBK1): 103%; remaining activity at 1 µM (TLK1): 95%; remaining activity at 1 µM (CAMKK beta): 91%; remaining activity at 1 µM (MARK1): 97%; remaining activity at 1 µM (NUAK1): 66%; remaining activity at 1 µM (MLK1): 35%; remaining activity at 1 µM (FGF-R1): 82%; remaining activity at 1 µM (EPH-B4): 104%; remaining activity at 1 µM (ASK1): 90%; remaining activity at 1 µM (MEKK1): 111%; remaining activity at 1 µM (PINK): 93%; remaining activity at 1 µM (DYRK3): 5%; pIC50 (DYRK3; radioactive filter-binding assay provided by the ICKP, read-out: Enzymatic IC50 DYRK3): 7.38; % AR (% kinase activity remaining) (PHK): 74%
2 | CC(=O)c1cnc2ccc(-c3cc(Cl)c(O)c(Cl)c3)nc2c1N[C@H]1CC[C@H](CN(C)C)CC1 [OTSSP167] | 2 | 1 | 11 | 8 | 80 | 4 | 3 | 2 | 7 | 1 | 10 | 15 | 111 | 7.85 | 7.92 | 9 | 7 | 6 | 13 | 1 | remaining activity at 1 µM (CDK2-Cyclin A): 2%; remaining activity at 1 µM (PRAK): 16%; remaining activity at 1 µM (TTK): 3%; remaining activity at 1 µM (NEK6): 92%; remaining activity at 1 µM (TTBK1): 82%; remaining activity at 1 µM (TLK1): 58%; remaining activity at 1 µM (CAMKK beta): 2%; remaining activity at 1 µM (MARK1): 31%; remaining activity at 1 µM (NUAK1): 0%; remaining activity at 1 µM (MLK1): 1%; remaining activity at 1 µM (FGF-R1): 4%; remaining activity at 1 µM (EPH-B4): 2%; remaining activity at 1 µM (ASK1): 7%; remaining activity at 1 µM (MEKK1): 96%; remaining activity at 1 µM (PINK): 89%; remaining activity at 1 µM (DYRK3): 1%; % AR (% kinase activity remaining) (PHK): 3%
